Reference: patent US20030032674A1, “Use of unsaturated fatty acids to treat severe inflammatory diseases” (priority 2001, published 2003)

How the values were obtained:
COX-2 expression [1] = experiment: COX-2 immunoblot (Western blot) in RAW 264.7 cells; type: cell-based, murine; conditions: RAW 264.7; 75 μM fatty acid
Procedure: (§1) Cell culture—RAW 264.7 cells (a murine macrophage-like cell line, ATCC TIB-71), 293T cells (a human embryonic kidney cell line, provided by Sam Lee, Beth Israel Hospital. Boston, Mass.), and HT-29 cells (a human colon adenocarcinoma cell line, ATCC HTB-38) were cultured in Dulbecco's modified Eagle's medium (DMEM) containing 10% (v/v) heat-inactivated fetal bovine serum (FBS, Intergen) and 100 units/ml Penicillin and […] Streptomycin (GIBCO-BRL) at 37° C. in a 5% CO2/air environment. Cells (2×10^6) were plated in 60-mm dishes and cultured for an additional 18 hours to allow the number of cells to approximately double. Cells were maintained in serum-poor (0.25% FBS) medium for another 18 hours prior to the treatment with indicated reagents.
Preparation of fatty acids-albumin complexes—All fatty acids were solubilized in ethanol, and then combined with fatty acid-free and low-endotoxin BSA at a molar ratio of 10:1 (fatty acid: albumin) in serum-poor medium (0.25% FBS). Fatty acids-albumin complex solution was freshly prepared prior to each experiment.
Sodium dodecyl sulfate-polyacrylamide gel electrophoresis (SDS-PAGE) and immunoblotting—These procedures were performed as previously described in D. Hwang et al., “Expression of mitogen-inducible cyclooxygenase induced by lipopolysaccharide: mediation through both mitogen-activated protein kinase and NF-kappaB signaling pathways in macrophages,” Biochem. Pharmacol., vol. 54, pp. 87-96 (1997). Briefly, solubilized proteins were subjected to 8% SDS-PAGE for COX-2, iNOS, IL- 1α and GAPDH immunoblot analyses. Following electrophoresis, the gel was transferred to a PVDF membrane and the membrane was blocked to prevent non-specific binding of antibodies in TBS-T [20 mM Tris HCl, 137 mM NaCl, 0.05% (v/v) Tween 20, pH 7.6] containing 5% non-fat dried milk (Carnation). Immunoblotting was performed using respective polyclonal antibodies followed by incubation with anti-rabbit IgG coupled to horseradish peroxidase. The membrane was exposed on an X-ray film (Kodak) using ECL western blot detection reagents (Amersham).
After 11 h, cell lysates were analyzed by COX-2, iNOS, IL-1α, or GAPDH immunoblot using a Western blot analysis.
The cell lysates were analyzed by COX-2 or GAPDH immunoblot.
RAW 264.7 cells were pretested with various concentrations (5, 10, 20, and 50 μM) of docosahexaenoic acid (C22:6n-3) for 3 hours, and then stimulated with LPS (100 ng/ml) for 8 hours and analyzed by COX-2, iNOS, IL-1 a or GAPDH immunoblot.
Cells stably transfected with NFκB(5×) or COX-2 promoter reporter genes were pretreated with various concentrations of each fatty acid for 3 hrs. Cells were then treated with LPS (200 ng/ml). After 8 hrs, cell lysates were prepared and luciferase activities were determined. Data are expressed as a percentage of LPS treatment alone. The results for NFκB and COX-2 expression are given in FIGS. 8A and 8B, respectively. The values are mean±SEM (n=3) of RLA, relative luciferase activity. In FIG. 8C, the cells were pretreated with DHA (20 μM) or C12:0 (75 μM) for 3 hrs and further stimulated with LPS (200 ng/ml for DHA; 1 ng/ml for C12:0). After 8 hr, cell lysates were analyzed by COX-2 and actin immunoblotting.

COX-2 expression [2] = experiment: COX-2 immunoblot in TNFα-treated HT-29 colon cancer cells; type: cell-based, human; conditions: pretreated 3 hours, TNFα 20 ng/ml 8 hours
Procedure: as §1
Sodium dodecyl sulfate-polyacrylamide gel electrophoresis (SDS-PAGE) and immunoblotting—These procedures were performed as previously described in D. Hwang et al., “Expression of mitogen-inducible cyclooxygenase induced by lipopolysaccharide: mediation through both mitogen-activated protein kinase and NF-kappaB signaling pathways in macrophages,” Biochem. Pharmacol., vol. 54, pp. 87-96 (1997). […]
Colon cancer cells (HT-29) were pretested with various concentrations of docosahexaenoic acid (C22:6n-3) for 3 hours and then treated with TNFα (20 ng/ml) for 8 hours. Cell lysates were analyzed by COX-2 and GAPDH immunoblot.

MyD88(CA) = experiment: NFκB reporter in 293T cells transfected with constitutively active MyD88; type: cell-based, human
Text: Plasmids and DNA Constructs—All plasmids and constructs were obtained or made as reported in either S. H. Rhee and D. Hwang, “Murine TOLL-like receptor 4 confers lipopolysaccaride responsiveness as determined by activation of NFκB and expression of the inducible cyclooxygenase,” Journal of Biological Chemistry, vol. 275, pp. 34035-34040 (2000); and J. Y. Lee et al., “Saturated fatty acids, but not unsaturated fatty acids, induce the expression of cyclooxygenase-2 mediated through TOLL-like receptor 4,” Journal of Biological Chemistry, vol. 276, pp. 16683-16689 (2001). Briefly, the luciferase reporter plasmids (pGL2) containing the promoter region of the murine COX-2 gene (−3201/+93 or −1017/+93) were provided by David Dewitt (Michigan State University, East Lansing, Mich.). To prepare the wild-type COX-2 promoter fragment, polymerase chain reaction (PCR) was performed with the primers named Kpn-COX2-For and Hind-COX2-Rev using the murine COX-2 (−1017/+93) luciferase reporter plasmid as a template. To prepare the mutant COX-2 promoter fragment containing mutated NFκB site, Kpn-COX2-Fmut and Hind-COX2-Rev were used as primers. Each PCR fragment was inserted into the KpnI and HindIII sites of pGL2 to generate the wild-type or mutant COX-2 (−410/+86) luciferase reporter constructs, respectively. Sequences for wild-type NFκB site and the primers were used as reported elsewhere. […]

COX-2 = biological target: T1, COX-2 (Ovis aries, UniProt P79208); conditions: cited from earlier work
T1 sequence (P79208 17-603): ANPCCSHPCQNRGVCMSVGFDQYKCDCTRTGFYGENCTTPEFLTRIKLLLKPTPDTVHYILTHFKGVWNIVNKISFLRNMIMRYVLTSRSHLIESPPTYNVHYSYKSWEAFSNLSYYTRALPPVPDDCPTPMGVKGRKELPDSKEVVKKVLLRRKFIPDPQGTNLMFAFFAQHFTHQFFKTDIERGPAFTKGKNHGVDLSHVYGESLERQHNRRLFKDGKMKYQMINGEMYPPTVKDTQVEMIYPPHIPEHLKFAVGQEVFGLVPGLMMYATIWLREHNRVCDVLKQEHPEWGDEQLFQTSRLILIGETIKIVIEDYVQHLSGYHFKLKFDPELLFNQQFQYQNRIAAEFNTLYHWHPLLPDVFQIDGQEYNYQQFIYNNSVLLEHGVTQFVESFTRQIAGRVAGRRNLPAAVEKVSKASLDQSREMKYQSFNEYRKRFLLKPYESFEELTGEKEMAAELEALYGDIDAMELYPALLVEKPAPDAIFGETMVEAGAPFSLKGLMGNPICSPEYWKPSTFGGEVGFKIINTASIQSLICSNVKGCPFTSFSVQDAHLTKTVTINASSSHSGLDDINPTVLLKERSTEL

COX-2 promoter = COX-2 promoter luciferase reporter gene assay, transiently transfected RAW 264.7 cells; type: cell-based, murine
Text: Plasmids and DNA Constructs—All plasmids and constructs were obtained or made as reported in either S. H. Rhee and D. Hwang, “Murine TOLL-like receptor 4 confers lipopolysaccaride responsiveness as determined by activation of NFκB and expression of the inducible cyclooxygenase,” Journal of Biological Chemistry, vol. 275, pp. 34035-34040 (2000); and J. Y. Lee et al., “Saturated fatty acids, but not unsaturated fatty acids, induce the expression of cyclooxygenase-2 mediated through TOLL-like receptor 4,” Journal of Biological Chemistry, vol. 276, pp. 16683-16689 (2001). Briefly, the luciferase reporter plasmids (pGL2) containing the promoter region of the murine COX-2 gene (−3201/+93 or −1017/+93) were provided by David Dewitt (Michigan State University, East Lansing, Mich.). To prepare the wild-type COX-2 promoter fragment, polymerase chain reaction (PCR) was performed with the primers named Kpn-COX2-For and Hind-COX2-Rev using the murine COX-2 (−1017/+93) luciferase reporter plasmid as a template. To prepare the mutant COX-2 promoter fragment containing mutated NFκB site, Kpn-COX2-Fmut and Hind-COX2-Rev were used as primers. Each PCR fragment was inserted into the KpnI and HindIII sites of pGL2 to generate the wild-type or mutant COX-2 (−410/+86) luciferase reporter constructs, respectively. Sequences for wild-type NFκB site and the primers were used as reported elsewhere. (See Lee et al., 2001). The 2×NFκB-luciferase reporter construct was a gift from Frank Mercurio (Signal Pharmaceuticals, San Diego, Calif.). HSP70-β-galactosidase reporter plasmid was a gift from Robert Modlin (University of California, Los Angeles, Calif.). The expression plasmids for a constitutively active form of TLR4 (DTLR4) and a dominant-negative mutant, DTLR4 (P712H) were prepared as previously described. See S. H. Rhee et al., 2000. The expression plasmid of the wild-type NFκB-inducing kinase (NIK), pRK-NIK(wt) was a gift from Mike Rothe (Tularik, South San Francisco, Calif.). The dominant-negative mutant of inhibitor kB (pCMV4-IkBa(DN)) was provided by Dean Ballard (Vanderbilt University, Nashville, Tenn.). 4×NFκB-luciferase reporter construct was purchased from Clontech (Palo Alto, Calif.) and used for transient transfection. Heat shock protein 70 (HSP70)-β-galactosidase reporter plasmid was from Robert Modlin (University of Calif., Los Angeles, Calif.). The expression plasmids for a wild-type TLR2 and a dominant-negative mutant [TLR2 (P681H)] were from C. B. Wilson (University of Washington, Seattle, Wash.). Constitutively active chimeric CD4-TLR4 was obtained from C. A. Janeway, Jr. (Yale University, New Haven, Conn.). The constitutively active form of MyD88 (MyD88(ΔToll)) and the dominant-negative mutant, MyD88(ΔDD) were kindly provided by Jurg Tschopp (University of Lausanne, Switzerland). The dominant-negative mutant of mouse PPARg [pCMX-PPARg(L466A/L467A)] was a gift from Ira Schulman (Ligand Pharmaceuticals, San Diego, Calif.). All DNA constructs were prepared in large scale using the EndoFree Plasmid Maxi kit (Qiagen, Chatsworth, Calif.) for transfection.
Transient transfection and luciferase assay—These procedures were performed as described in S. H. Rhee et al., “Murine TOLL-like receptor 4 confers lipopolysaccharide responsiveness as determined by activation of NFκB and expression of the inducible cyclooxygenase,” J. Biol. Chem., vol. 275, pp. 34035-34040 (2000); and J. H. Paik et al., “Two opposing effects of non-steroidal anti-inflammatory drugs on the expression of the inducible cyclooxygenase, Mediation through different signaling pathways,” J. Biol. Chem., vol. 275, pp. 28173-28179 (2000). Briefly, RAW 264.7 cells were plated in 6-well plates (5×10^5 cells/well) and transfected with luciferase reporter plasmids and HSP70-β-galactosidase plasmid as an internal control using SuperFect transfect reagent (Quiagen) according to the manufacturer's instructions. […]

NFκB = NFκB luciferase reporter gene assay, transiently transfected RAW 264.7 cells; type: cell-based, murine; conditions: PamCAG 1 μg/ml, 18 hr
TLR2 = biological target: T2, TLR2 (Homo sapiens, UniProt O60603); experiment: NFκB reporter in TLR2-transfected 293T cells; type: cell-based; conditions: PamCAG 1 μg/ml, 18 hr
T2 construct: expressed in transfected cells; host or cells: 293T (stated not to express TLR2)
Text: Plasmids and DNA Constructs—All plasmids and constructs were obtained or made as reported in either S. H. Rhee and D. Hwang, “Murine TOLL-like receptor 4 confers lipopolysaccaride responsiveness as determined by activation of NFκB and expression of the inducible cyclooxygenase,” Journal of Biological Chemistry, vol. 275, pp. 34035-34040 (2000); and J. Y. Lee et al., “Saturated fatty acids, but not unsaturated fatty acids, induce the expression of cyclooxygenase-2 mediated through TOLL-like receptor 4,” Journal of Biological Chemistry, vol. 276, pp. 16683-16689 (2001). Briefly, the luciferase reporter plasmids (pGL2) containing the promoter region of the murine COX-2 gene (−3201/+93 or −1017/+93) were provided by David Dewitt (Michigan State University, East Lansing, Mich.). To prepare the wild-type COX-2 promoter fragment, polymerase chain reaction (PCR) was performed with the primers named Kpn-COX2-For and Hind-COX2-Rev using the murine COX-2 (−1017/+93) luciferase reporter plasmid as a template. To prepare the mutant COX-2 promoter fragment containing mutated NFκB site, Kpn-COX2-Fmut and Hind-COX2-Rev were used as primers. […]
Acylation by saturated fatty acids of bacterial lipopeptides is also required for the activation of TLR2. […] After 18 hr, luciferase activities were determined. […]

T2 sequence (O60603 21-784, species assumed): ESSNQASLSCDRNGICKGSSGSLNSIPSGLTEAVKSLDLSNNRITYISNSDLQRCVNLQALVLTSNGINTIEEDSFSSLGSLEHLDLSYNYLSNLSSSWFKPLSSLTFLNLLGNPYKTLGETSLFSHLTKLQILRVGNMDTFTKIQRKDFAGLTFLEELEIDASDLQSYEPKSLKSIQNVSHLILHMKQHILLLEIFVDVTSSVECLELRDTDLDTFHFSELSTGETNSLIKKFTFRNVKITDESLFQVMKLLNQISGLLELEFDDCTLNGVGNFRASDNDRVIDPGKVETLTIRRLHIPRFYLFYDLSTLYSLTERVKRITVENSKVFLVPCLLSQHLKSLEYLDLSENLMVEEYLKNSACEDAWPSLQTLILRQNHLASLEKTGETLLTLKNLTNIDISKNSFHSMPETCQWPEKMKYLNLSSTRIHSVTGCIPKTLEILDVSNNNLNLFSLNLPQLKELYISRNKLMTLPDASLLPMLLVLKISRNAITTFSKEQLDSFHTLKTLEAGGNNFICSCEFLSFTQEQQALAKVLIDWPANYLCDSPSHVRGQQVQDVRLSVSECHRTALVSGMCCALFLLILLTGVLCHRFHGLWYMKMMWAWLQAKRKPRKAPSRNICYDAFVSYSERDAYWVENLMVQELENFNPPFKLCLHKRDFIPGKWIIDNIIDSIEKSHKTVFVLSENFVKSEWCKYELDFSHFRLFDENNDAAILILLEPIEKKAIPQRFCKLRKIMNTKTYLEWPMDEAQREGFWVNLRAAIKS

Molecule: CCCCC/C=C\C/C=C\C/C=C\C/C=C\CCCC(=O)O [arachidonic acid]
- COX-2 expression induced by fatty acid (immunoblot) (COX-2 expression [1]): unable to induce COX-2 expression

Molecule: CCCCCC/C=C/C=C\CCCCCCCC(=O)O [conjugated linoleic acid, 9(Z), 11(E)-octadecadienoic acid]
- COX-2 expression induced by fatty acid (immunoblot) (COX-2 expression [1]): unable to induce COX-2 expression

Molecule: CC/C=C\C/C=C\C/C=C\C/C=C\C/C=C\C/C=C\CCC(=O)O [docosahexaenoic acid]
- effect on TNFα-induced COX-2 expression (immunoblot) (COX-2 expression [2]): failed to inhibit
- effect on NFκB activation induced by MyD88 (MyD88(CA)): does not inhibit

Molecule: CCCCC/C=C\C/C=C\CCCCCCCC(=O)O [linoleic acid]
- COX-2 expression induced by fatty acid (immunoblot) (COX-2 expression [1]): unable to induce COX-2 expression
- effect on COX-2 (inhibition) (COX-2): not as effective

Molecule: CCCCCCCCCCCCCC(=O)O [myristic acid]
- effect on COX-2 (inhibition) (COX-2): No effect

Molecule: CCCCCCCC/C=C\CCCCCCCC(=O)O [oleic acid]
- COX-2 expression induced by fatty acid (immunoblot) (COX-2 expression [1]): unable to induce COX-2 expression
- effect on COX-2 (inhibition) (COX-2): no effect

Molecule: CCCCCCCCCCCCCCCC(=O)O [palmitic acid]
- COX-2 expression induced by saturated fatty acids (relative luciferase activity) (COX-2 promoter; saturated fatty acids C8:0-C18:0, 75 μM each, 24 hr): most potent in inducing COX-2 expression
- effect on COX-2 (inhibition) (COX-2): No effect

Molecule: CCCCCCCCCCCCCCC(=O)O [pentadecanoic acid]
- effect on COX-2 (inhibition) (COX-2): No effect

Molecule: CCCCCCCCCCCCCCCCCC(=O)O [stearic acid]
- effect on COX-2 (inhibition) (COX-2): No effect

Molecule: CC/C=C\C/C=C\C/C=C\CCCCCCCC(=O)O [α-LA, α-linolenic acid]
- effect on COX-2 (inhibition) (COX-2): Inhibitory effects

Molecule: palmitoyl-Cys((RS)-2,3-di(palmitoyloxy)-propyl)-Ala-Gly-OH [PamCAG]
- expression of COX-2 (endogenous TLR2) (COX-2 promoter; RAW 264.7, PamCAG 1 μg/ml, 18 hr): induced
- NFκB activation (endogenous TLR2) (NFκB): induced
- TLR2 activation as determined by NFκB activation (TLR2): activated TLR2
